# From PubChem BioAssay (NCI)
#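 Where inhibition never reached the appropriate level, the endpoint shown equals the highest concentration tested. Otherwise, values were interpolated linearly from a five-concentration, 48-hour dose response in 96-well plates. GI50 marks 50% less growth. At the TGI there is no net growth.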
# Columns and labels:
# Experiment in all cases: NCI-60 cell line screen, 48 h
# CCRF-CEM leukemia = system: CCRF-CEM leukemia
# SN12C renal = system: SN12C renal
# MOLT-4 leukemia = system: MOLT-4 leukemia
# NCI-H460 lung = system: NCI-H460 lung
# SNB-75 CNS = system: SNB-75 CNS
# SNB-19 CNS = system: SNB-19 CNS
# A549 NSCLC = system: A549 NSCLC
# MDA-MB-435 = system: MDA-MB-435
# MALME-3M melanoma = system: MALME-3M melanoma
# HCC-2998 colon = system: HCC-2998 colon
# RXF 393 renal = system: RXF 393 renal
# NCI/ADR-RES ovarian = system: NCI/ADR-RES ovarian
# HS 578T breast = system: HS 578T breast
# KM12 colon = system: KM12 colon
# OVCAR-8 ovarian = system: OVCAR-8 ovarian
# COLO 205 colon = system: COLO 205 colon
# HOP-92 NSCLC = system: HOP-92 NSCLC
# UO-31 renal = system: UO-31 renal
# SF-268 CNS = system: SF-268 CNS
# EKVX NSCLC = system: EKVX NSCLC
# SW-620 colon = system: SW-620 colon
# SF-295 CNS = system: SF-295 CNS
# M14 melanoma = system: M14 melanoma
# SK-OV-3 ovarian = system: SK-OV-3 ovarian
# T-47D breast = system: T-47D breast
# LOX IMVI melanoma = system: LOX IMVI melanoma
# CAKI-1 renal = system: CAKI-1 renal
# UACC-62 melanoma = system: UACC-62 melanoma
# OVCAR-4 ovarian = system: OVCAR-4 ovarian
# UACC-257 melanoma = system: UACC-257 melanoma
# HCT-15 colon = system: HCT-15 colon
# NCI-H23 lung = system: NCI-H23 lung
# SF-539 CNS = system: SF-539 CNS
# PC-3 prostate = system: PC-3 prostate
# U251 CNS = system: U251 CNS
# BT-549 breast = system: BT-549 breast
# SK-MEL-2 melanoma = system: SK-MEL-2 melanoma
# A498 renal = system: A498 renal
# ACHN renal = system: ACHN renal
# IGROV1 ovarian = system: IGROV1 ovarian
# SK-MEL-5 melanoma = system: SK-MEL-5 melanoma
# RPMI-8226 leukemia = system: RPMI-8226 leukemia
# MCF7 breast = system: MCF7 breast
# 786-0 renal = system: 786-0 renal
# HL-60(TB) leukemia = system: HL-60(TB) leukemia
# SK-MEL-28 melanoma = system: SK-MEL-28 melanoma
# DU-145 prostate = system: DU-145 prostate
# HCT-116 colon = system: HCT-116 colon
# TK-10 renal = system: TK-10 renal
# HT29 colon = system: HT29 colon
# MDA-MB-231 breast = system: MDA-MB-231 breast
# OVCAR-5 ovarian = system: OVCAR-5 ovarian
# OVCAR-3 ovarian = system: OVCAR-3 ovarian
# HOP-62 NSCLC = system: HOP-62 NSCLC
# NCI-H522 lung = system: NCI-H522 lung
# SR leukemia = system: SR leukemia
# K-562 leukemia = system: K-562 leukemia
# NCI-H226 lung = system: NCI-H226 lung
structure (smiles),measurement,setting,value
C=CC[PH+](c1ccccc1)c1ccccc1.C=CC[PH+](c1ccccc1)c1ccccc1.[Cl][Pt][Cl],GI50,CCRF-CEM leukemia,3.6 µM
same,TGI,CCRF-CEM leukemia,> 100 µM
same,GI50,SN12C renal,3.35 µM
same,TGI,SN12C renal,13.9 µM
same,GI50,MOLT-4 leukemia,3.11 µM
same,TGI,MOLT-4 leukemia,14 µM
same,GI50,NCI-H460 lung,12.8 µM
same,TGI,NCI-H460 lung,30.1 µM
same,GI50,SNB-75 CNS,11 µM
same,TGI,SNB-75 CNS,25.1 µM
same,GI50,SNB-19 CNS,14.2 µM
same,TGI,SNB-19 CNS,32.4 µM
same,GI50,A549 NSCLC,21.8 µM
same,TGI,A549 NSCLC,> 100 µM
same,GI50,MDA-MB-435,14.8 µM
same,TGI,MDA-MB-435,28.9 µM
same,GI50,MALME-3M melanoma,2.22 µM
same,TGI,MALME-3M melanoma,5.8 µM
same,GI50,HCC-2998 colon,15 µM
same,TGI,HCC-2998 colon,29.9 µM
same,GI50,RXF 393 renal,3.33 µM
same,TGI,RXF 393 renal,9.82 µM
same,GI50,NCI/ADR-RES ovarian,25.1 µM
same,TGI,NCI/ADR-RES ovarian,> 100 µM
same,GI50,HS 578T breast,13.4 µM
same,TGI,HS 578T breast,48.6 µM
same,GI50,KM12 colon,15.4 µM
same,TGI,KM12 colon,35.7 µM
same,GI50,OVCAR-8 ovarian,5.25 µM
same,TGI,OVCAR-8 ovarian,31.5 µM
same,GI50,COLO 205 colon,5.39 µM
same,TGI,COLO 205 colon,34.1 µM
same,GI50,HOP-92 NSCLC,3.27 µM
same,TGI,HOP-92 NSCLC,12.4 µM
same,GI50,UO-31 renal,3.95 µM
same,TGI,UO-31 renal,16.4 µM
same,GI50,SF-268 CNS,14.2 µM
same,TGI,SF-268 CNS,32 µM
same,GI50,EKVX NSCLC,13 µM
same,TGI,EKVX NSCLC,27.4 µM
same,GI50,SW-620 colon,3.46 µM
same,TGI,SW-620 colon,13.6 µM
same,GI50,SF-295 CNS,37.9 µM
same,TGI,SF-295 CNS,> 100 µM
same,GI50,M14 melanoma,6.35 µM
same,TGI,M14 melanoma,22.3 µM
same,GI50,SK-OV-3 ovarian,24 µM
same,TGI,SK-OV-3 ovarian,65.7 µM
same,GI50,T-47D breast,4.59 µM
same,TGI,T-47D breast,24.6 µM
same,GI50,LOX IMVI melanoma,2.1 µM
same,TGI,LOX IMVI melanoma,4.7 µM
same,GI50,CAKI-1 renal,10.6 µM
same,TGI,CAKI-1 renal,22.7 µM
same,GI50,UACC-62 melanoma,5.88 µM
same,TGI,UACC-62 melanoma,19.5 µM
same,GI50,OVCAR-4 ovarian,4.78 µM
same,TGI,OVCAR-4 ovarian,16.8 µM
same,GI50,UACC-257 melanoma,11.9 µM
same,TGI,UACC-257 melanoma,31.6 µM
same,GI50,HCT-15 colon,3.87 µM
same,TGI,HCT-15 colon,16.8 µM
same,GI50,NCI-H23 lung,9.14 µM
same,TGI,NCI-H23 lung,23.9 µM
same,GI50,SF-539 CNS,13.2 µM
same,TGI,SF-539 CNS,26.3 µM
same,GI50,PC-3 prostate,7.11 µM
same,TGI,PC-3 prostate,24.6 µM
same,GI50,U251 CNS,7.45 µM
same,TGI,U251 CNS,22.3 µM
same,GI50,BT-549 breast,17.1 µM
same,TGI,BT-549 breast,35.4 µM
same,GI50,SK-MEL-2 melanoma,18.3 µM
same,TGI,SK-MEL-2 melanoma,40.4 µM
same,GI50,A498 renal,16.5 µM
same,TGI,A498 renal,57.8 µM
same,GI50,ACHN renal,3.73 µM
same,TGI,ACHN renal,12.9 µM
same,GI50,IGROV1 ovarian,3.68 µM
same,TGI,IGROV1 ovarian,13.9 µM
same,GI50,SK-MEL-5 melanoma,15.8 µM
same,TGI,SK-MEL-5 melanoma,30.6 µM
same,GI50,RPMI-8226 leukemia,3.18 µM
same,TGI,RPMI-8226 leukemia,13.6 µM
same,GI50,MCF7 breast,5.62 µM
same,TGI,MCF7 breast,24.4 µM
same,GI50,786-0 renal,12.6 µM
same,TGI,786-0 renal,25.5 µM
same,GI50,HL-60(TB) leukemia,3.34 µM
same,TGI,HL-60(TB) leukemia,14 µM
same,GI50,SK-MEL-28 melanoma,7.69 µM
same,TGI,SK-MEL-28 melanoma,21.3 µM
same,GI50,DU-145 prostate,12.7 µM
same,TGI,DU-145 prostate,30.2 µM
same,GI50,HCT-116 colon,3.2 µM
same,TGI,HCT-116 colon,10.6 µM
same,GI50,TK-10 renal,13.4 µM
same,TGI,TK-10 renal,32.7 µM
same,GI50,HT29 colon,8.98 µM
same,TGI,HT29 colon,32.8 µM
same,GI50,MDA-MB-231 breast,3.23 µM
same,TGI,MDA-MB-231 breast,10.3 µM
same,GI50,OVCAR-5 ovarian,13.9 µM
same,TGI,OVCAR-5 ovarian,30.4 µM
same,GI50,OVCAR-3 ovarian,3.21 µM
same,TGI,OVCAR-3 ovarian,10.4 µM
same,GI50,HOP-62 NSCLC,18.5 µM
same,TGI,HOP-62 NSCLC,40.5 µM
same,GI50,NCI-H522 lung,2.68 µM
same,TGI,NCI-H522 lung,8.19 µM
same,GI50,SR leukemia,2.84 µM
same,TGI,SR leukemia,11.7 µM
same,GI50,K-562 leukemia,3.27 µM
same,TGI,K-562 leukemia,11.9 µM
same,GI50,NCI-H226 lung,16.1 µM
same,TGI,NCI-H226 lung,33 µM
